Among the data in PMC9192788, “Identification of a D-galacturonate reductase efficiently using NADH as a cofactor” (Biotechnology Reports, 2022) are Km values, retold here.

Experiment [1] concerns T1, Gaa1 (E. gracilis D-galacturonate reductase).
T1 construct: full-length 420 aa, C-terminal 6xHis tag kept, synthetic codon-optimized gene expressed in S. cerevisiae, IMAC purified, ~45 kDa; primer-encoded N-terminus MVDVLMVGT
Kind of experiment: NAD(P)H oxidation, absorbance at […] nm. As to conditions: 1 mM NADPH, 0.1 M Na-phosphate pH 7, 30°C. Type of experiment: biochemical, Euglena gracilis.

The test system is the same in experiment [2]. Put plainly: reverse reaction with NADP. It is filed as biochemical, Euglena gracilis. The conditions noted are these: 1 mM NADP, 0.1 M Na-phosphate pH 7, 30°C. The source says:
reverse reaction with NADP on Gaa1 (E. gracilis D-galacturonate reductase)

Regarding `O=C(O)[C@H]1OC(O)[C@H](O)[C@@H](O)[C@H]1O` (stereo partly drawn) [GalUA, D-galacturonate], the Km in experiment [1] stood at 300 µM. Regarding `O=C(O)[C@@H](O)[C@H](O)[C@H](O)[C@@H](O)CO` [L-galA, L-galactonate], the Km in experiment [2] was 700 µM.
